Measured values as given in PubChem BioAssay (NCI).
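Results reflect a 48-hour exposure of cells in 96-well plates to compound at five concentrations. At the GI50, growth is halved. The concentration for full growth arrest is given as TGI.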

Legend:
Experiment in all cases: NCI anticancer screen, dose series, 48 h
HL-60(TB) leukemia = system: HL-60(TB) leukemia
HOP-92 NSCLC = system: HOP-92 NSCLC
K-562 leukemia = system: K-562 leukemia
MALME-3M melanoma = system: MALME-3M melanoma
SF-295 CNS = system: SF-295 CNS
SF-539 CNS = system: SF-539 CNS
SN12C renal = system: SN12C renal
SNB-19 CNS = system: SNB-19 CNS
T-47D breast = system: T-47D breast
UACC-62 melanoma = system: UACC-62 melanoma

Row | Structure (SMILES) | TGI (HL-60(TB) leukemia) [µM] | TGI (HOP-92 NSCLC) [µM] | TGI (K-562 leukemia) [µM] | TGI (MALME-3M melanoma) [µM] | TGI (SF-295 CNS) [µM] | TGI (SF-539 CNS) [µM] | TGI (SN12C renal) [µM] | TGI (SNB-19 CNS) [µM] | TGI (T-47D breast) [µM] | TGI (UACC-62 melanoma) [µM] | GI50 (HL-60(TB) leukemia) [µM] | GI50 (HOP-92 NSCLC) [µM] | GI50 (K-562 leukemia) [µM] | GI50 (MALME-3M melanoma) [µM] | GI50 (SF-295 CNS) [µM] | GI50 (SF-539 CNS) [µM] | GI50 (SN12C renal) [µM] | GI50 (SNB-19 CNS) [µM] | GI50 (T-47D breast) [µM] | GI50 (UACC-62 melanoma) [µM]
1 | NCCN1C(=O)c2ccccc2C1(O)c1ccc(Cl)cc1 (centres undefined) | 70.8 | 34.4 | 39 | 27.2 | 55.3 | 43.2 | > 100 | 61 | 37.8 | 30.7 | – | – | – | – | – | – | – | – | – | –
2 | Cn1c2ccccc2c2nnc(NNCc3ccccn3)nc21 | 3.13 | 5.91 | 13.7 | 4.37 | 12.4 | 3.38 | 14.6 | 17.4 | 8.98 | 0.98 | 0.318 | 0.279 | 0.363 | 0.4 | 0.397 | 0.393 | 0.462 | 0.597 | 0.369 | 0.268
3 | CCN(CC)c1ccc(/C=C/C=C(/C#N)C(N)=S)cc1 | 18.9 | 71.3 | 18.9 | > 100 | > 100 | 31.3 | 75.2 | > 100 | > 100 | 48.8 | 2.53 | 10.8 | 2.83 | 32 | 27.6 | 12.3 | 7.56 | 40.4 | 2.96 | 15.2
4 | Cc1cc(O)cc(C)c1/C=C/c1cncc(C(=O)OC(C)(C)C)c1 | 22.7 | 18.8 | > 25 | > 25 | > 25 | > 25 | > 25 | > 25 | > 25 | > 25 | 8.65 | 4.01 | 11.6 | > 16.6 | 19.8 | > 18.5 | 12.6 | > 25 | 10.7 | 17
5 | CC(C)(C)OC(=O)NCCCCCCCCCCn1c2c(c3ccccc3c1=O)C(=O)c1ccccc1-2 | > 100 | 35.2 | > 100 | > 100 | > 100 | > 100 | > 100 | > 100 | > 100 | > 100 | 32.6 | 9.92 | 27.4 | > 100 | 30.9 | 43.1 | > 100 | 44.1 | > 100 | 43.9
6 | CC(=O)c1ccc2c(c1)N(CCCN(C)C)c1ccccc1S2 | 41 | 53.7 | 83.7 | 38.3 | 25.5 | 28.2 | 30.8 | 43.2 | 39.6 | 29.1 | 14 | 11.3 | 15.9 | 17.9 | 11.9 | 13.7 | 14.5 | 18.6 | 16.6 | 14.9
7 | COc1ccc(/C(=N/O)c2cc(OC)c(OC)c(OC)c2)c(OC)c1N | 14.3 | > 100 | > 100 | > 100 | > 100 | > 100 | > 100 | > 100 | > 100 | – | 3.38 | > 100 | 3.14 | 4.22 | 3.02 | 2.98 | 15.4 | 5.32 | 26.2 | –
8 | COc1ccc(Oc2cc(NCCC(F)(F)F)c3ncc(-c4ccc(C(=O)NC5CC5)c(C)c4)n3n2)c(F)c1F | > 100 | 39.3 | > 100 | 54.8 | > 65.3 | 21.9 | > 100 | > 72.4 | > 92.7 | 85.5 | 2.22 | 4.54 | 10.2 | 2.08 | 0.638 | 0.758 | 0.527 | 5.73 | 1.9 | 0.681
9 | COC(=O)/C(=C\c1c(-c2ccccc2)[nH]c2ccccc12)S(C)(=O)=O | 15.1 | 50.2 | – | 44.2 | 19.9 | 11.5 | 32 | > 100 | 30.8 | 17 | 3.38 | 6.56 | – | 12.2 | 3.13 | 3.11 | 3.14 | 8.68 | 2.82 | 3.34
10 | Oc1c2c(c(O)c3ccccc13)C1(N=N2)c2ccccc2Oc2ccccc21 | 62.1 | 31 | > 100 | 9.28 | 33.3 | 20.2 | 27 | 32.4 | 47.8 | 25.1 | – | – | – | – | – | – | – | – | – | –
11 | COc1ccc(-c2nc(-c3nc4ccc(C(F)(F)F)cc4[nH]3)c3ccccn23)cc1 | > 100 | > 100 | > 100 | > 100 | > 100 | > 100 | > 100 | > 100 | > 100 | > 100 | > 100 | > 100 | 35.3 | > 100 | > 100 | > 100 | > 100 | > 100 | 5.33 | 51.1
12 | FC(F)(F)c1[nH]ncc1-c1nc2ccc3[nH]ncc3c2c2c1CCCC2 | 6.22 | 3.5 | 60.5 | 3.82 | 8.52 | 2.83 | 5.6 | 9.09 | 9.39 | 2.83 | 2.09 | 1.21 | 2.71 | 0.927 | 1.69 | 1.2 | 1.53 | 2.64 | 2.03 | 1.02
13 | N#C/C(=C\c1cccc2cnccc12)N1N=NC2C=CC=CC21 (centres undefined) | 24.3 | 5.13 | > 100 | > 100 | > 100 | 9.23 | > 100 | > 100 | 6.4 | – | 3 | 0.532 | 2.85 | 3.24 | 32.4 | 2.65 | 3.24 | 6.29 | 0.582 | –
